Assay results as given in patent US5393755A, “Polycyclic guanine derivatives” (priority 1992, dated 1995).

Legend:
[1] = target: T1, calcium-calmodulin dependent phosphodiesterase (CaM-PDE) (Bos taurus, UniProt P14100); experiment: Phosphodiesterase Inhibition In Vitro: CaM-PDE; type: biochemical, bovine (aorta); details: 1 μM 3H-cGMP substrate, pH 7.5, 25 minutes, room temperature, with calmodulin and CaCl2
T1 construct: partially pure enzyme obtained from bovine aorta homogenates; from tissue; host or cells: bovine aorta homogenates
Method: (§1) Compounds are evaluated for inhibition of two phosphodiesterase enzymes which hydrolyze cyclic guanosine monophosphate (cGMP). The first enzyme, calcium-calmodulin dependent phosphodiesterase (CaM-PDE), is a partially pure enzyme obtained from bovine aorta homogenates and purified by DEAE-cellulose and calmodulin-affinity chromatography. The enzyme is activated several fold by Ca-calmodulin and is selective for cGMP, although it will also hydrolyze cAMP. […] Bovine aorta homogenates and primary cultures of bovine aortic endothelial and vascular smooth muscle cells contain an enzyme with properties very similar to the lung isozyme.
(§2) The enzyme assay is performed using a Biomek Automated Pipetting Station. Compounds are dissolved in distilled water or DMSO and diluted with 10% DMSO.
(§3) Assays contain the following components:
(§4) 50 mM Tris-HCl, pH 7.5, 5 mM magnesium chloride
(§5) 0.5 mg/ml snake venom alkaline phosphatase
0.1 μM Calmodulin and 1 mM CaCl2 (for CaM-PDE only)
(§6) Assays are initiated by addition of enzyme and stopped by addition of 10 mM isobutylmethylxanthine, a general phosphodiesterase inhibitor. Assays are performed for 25 minutes at room temperature to achieve 5-10% hydrolysis of substrate. The negatively charged substrates are then separated from guanosine by binding to an anion-exchange resin (AG1-X8) and centrifugation or filtration, and the product is quantitated by scintillation counting in counts per minute (cpm) of the remaining soluble material. Percent inhibition is calculated as follows:
(§7) % Inhibition=100-[(cpm compound-blank)/(cpm control-blank)×100]
(§8) Activity is expresssed as the IC50 value, i.e. the concentration required to inhibit activity of enzyme by 50 per cent.

[2] = target: cGMP phosphodiesterase (cGMP-PDE) (Bos taurus, UniProt Q28156); experiment: biochemical; parameters: species or system bovine (lung); details: 1 μM 3H-cGMP substrate, pH 7.5, 25 minutes, room temperature
Method: as §1, §2, §3, §4, §5, §6, §7, §8

[3] = system: spontaneously hypertensive rats (SHR); experiment: Antihypertensive Activity in Rats (conscious SHR, oral); type: in vivo, rat (spontaneously hypertensive; details: fasted SHR males
Description: The present compounds are useful in inhibiting the phosphodiesterase enzymes. These phosphodiesterase enzymes are known to hydrolyze cGMP in smooth muscle. High levels of cGMP are associated with the relaxation of vascular smooth muscle, with a consequent subsequent reduction in blood pressure. Thus, it is believed that by inhibiting these phosphodiesterase enzymes, cGMP levels in muscle will be either maintained or increased with a subsequent reduction in blood pressure. In vivo antihypertensive activity is determined orally in spontaneously hypertensive rats (SHR). The ability of the compounds of the present invention to lower blood pressure can be assessed in vivo in conscious spontaneously hypertensive rats (SHR). SHR males are purchased from Taconic Farms, Germantown, N.Y. and are approximately 16-18 weeks old when anesthetized with ether. The caudal (ventral tail) artery is cannulated with polyethylene tubing (PE50) and blood pressure and heart rate are recorded as described by Baum, T. et. al, J. Cardiovasc. Pharmacol. Vol 5, pp. 655-667, (1983). Rats are placed into plastic cylindrical cages where they rapidly recover consciousness. Blood pressure and heart rate are allowed to stabilize for approximately 90 minutes prior to compound administration. Compounds are administered orally as solutions or suspensions in 0.4% aqueous methylcellulose vehicle via a feeding needle. […] Activity is expressed as the fall in mean blood pressure (MBP) in millimeters of mercury (mm Hg). Compound-induced changes are compared with the changes in an appropriate placebo group.

SMILES | IC50 [1] | IC50 [2] | SHR Antihypertensive Fall in MBP ([3]; Dose 25 mpk) | SHR Antihypertensive Fall in MBP ([3]; Dose 5 mpk) | SHR Antihypertensive Fall in MBP ([3]; Dose 10 mpk)
CN1C(=O)c2c(ncn2Cc2ccccc2)N2C1=N[C@@H]1CCC[C@@H]12 (relative stereo) [Example 1, cis-5,6a,7,8,9,9a-Hexahydro-5-methyl-3-(phenylmethyl)cyclopent[4,5]imidazo[2,1-b]purin-4-one] | 300 nM | 400 nM | 30 mmHg | – | –
Cc1nc2c(n1Cc1ccccc1)C(=O)N(C)C1=NC3(CCCC3)CN12 [Example 34a, 2',5'-Dimethyl-3'-(phenylmethyl)spiro[cyclopentane-1,7'(8'H)-(3'H)-imidazo[2,1-b]purin]-4'(5'H)one] | 300 nM | 800 nM | 58 mmHg | – | –
CN1C(=O)c2c(ncn2Cc2ccccc2)N2CC3(CCCC3)N=C12 [Example 34, 5'-Methyl-3'-(phenylmethyl)-spiro[cyclopentane-1,7'(8'H)-(3'H)-imidazo[2,1-b]purin]-4'(5'H)one] | 100 nM | 100 nM | 40 mmHg | – | –
CN1C(=O)c2c(ncn2Cc2ccc(Cl)cc2)N2C1=N[C@@H]1CCC[C@@H]12 (relative stereo) [Example 21, cis-5,6a,7,8,9,9a-Hexahydro-5-methyl-3-(4-chlorophenylmethyl)cyclopenta[4,5]imidazo[2,1-b]purin-4(3H)-one] | 3300 nM | 400 nM | 20 mmHg | – | –
Cc1nc2c(n1Cc1ccccc1)C(=O)N(C)C1=NC34CCCC3CCC4N12 (single isomer, unassigned; (+)) [Example 39, (+) 6a,7,8,9,9a,10,11,11a-Octahydro-2,5-dimethyl-3-phenylmethyl-3H-pentaleno[6a',1':4,5]imidazo[2,1-b]purin-4(5H)-one] | 100 nM | 100 nM | 40 mmHg | – | –
COC(=O)c1nc2c(n1Cc1ccccc1)C(=O)N(C)C1=N[C@@H]3CCC[C@@H]3N12 (relative stereo) [Example 28, cis-3,4,5,6a,7,8,9,9a-Octahydro-5-methyl-4-oxo-3-(phenylmethyl)cyclopent[4,5]imidazo[2,1-b]purin-2-carboxylic acid, methyl ester] | 200 nM | 200 nM | 19 mmHg | – | –
Cc1nc2c(n1Cc1ccccc1)C(=O)N(C)C1=N[C@@H]3CCC[C@@H]3N12 (relative stereo) [Example 9, cis-5,6a,7,8,9,9a-Hexahydro-2,5-dimethyl-3-(phenylmethyl)cyclopent[4,5]imidazo[2,1-b]purin-4-(3H)-one] | 600 nM | – | 36 mmHg | – | –
Cc1nc2c(n1Cc1ccccc1)C(=O)N(C)C1=N[C@@H]3CCC[C@@H]3N12 [Example 10, 5,6a(R),7,8,9,9a(S)-Hexahydro-2,5-dimethyl-3-(phenylmethyl)cyclopent[4,5]imidazo[2,1-b]purin-4(3H)-one] | 300 nM | – | 45 mmHg | – | –
CCc1nc2c(n1Cc1ccccc1)C(=O)N(C)C1=N[C@@H]3CCCC[C@@H]3N12 (relative stereo) [Example 16, cis-6a,7,8,9,10,10a-Hexahydro-5-methyl-2-ethyl-3-(phenylmethyl)-3H-benzimidazo[2,1-b]purin-4(5H)-one] | 100 nM | 3000 nM | 23 mmHg | – | –
CN1C(=O)c2c(ncn2CC2CCCCC2)N2C1=N[C@@H]1CCC[C@@H]12 (relative stereo) [Example 22, cis-5,6a,7,8,9,9a-Hexahydro-5-methyl-3-(cyclohexylmethyl)cyclopent[4,5]imidazo[2,1-b]purin-4(3H)-one] | 200 nM | 200 nM | 15 mmHg | – | –
CN1C(=O)c2c(ncn2Cc2ccccc2)N2C1=N[C@@H]1CCC[C@@H]12 [Example 35, cis-5,6a(R),7,8,9,9a(S)-Hexahydro-5-methyl-3-(phenylmethyl)cyclopent[4,5]imidazo[2,1-b]purin-4(3H)one] | 400 nM | 300 nM | 41 mmHg | – | –
Cc1nc2c(n1Cc1ccccc1)C(=O)N(C)C1=N[C@@H]3CCCCC[C@@H]3N12 (relative stereo) [Example 14, cis-5,6a,7,8,9,9a-Hexahydro-2,5-dimethyl-3-(phenylmethyl)cyclohept[6,7]imidazo[2,1-b]purin-4(3H)-one] | 300 nM | 900 nM | 20 mmHg | – | –
Cc1nc2c(n1Cc1ccccc1)C(=O)N(C)C1=N[C@@H]3CCCC[C@@H]3N12 (relative stereo) [Example 12, cis-6a,7,8,9,10,10a-Hexahydro-2,5-dimethyl-3-(phenylmethyl)-3H-benzimidazo[2,1-b]purin-4(5H)-one] | 200 nM | 200 nM | 38 mmHg | – | –
CN1C(=S)c2c(ncn2Cc2ccccc2)N2C1=N[C@@H]1CCC[C@@H]12 (relative stereo) [Example 20, cis-5,6a,7,8,9,9a-Hexahydro-5-methyl-3-(phenylmethyl)cyclopenta[4,5]imidazo[2,1-b]purin-4(3H)-thione] | 40 nM | 400 nM | 6 mmHg | – | –
CN1C(=O)c2c(ncn2Cc2ccccc2)N2C1=N[C@@H]1CCCC[C@@H]12 (relative stereo) [Example 3, cis-6a,7,8,9,10,10a-Hexahydro-5-methyl-3-(phenylmethyl)-3H-benzimidazo[2,1-b]purin-4(5H)-one] | 100 nM | 1400 nM | 22 mmHg | – | –
Cc1nc2c([nH]1)C(=O)N(C)C1=N[C@@H]3CCC[C@@H]3N12 [Example 19a, cis-5,6a(R),7,8,9,9a(S)-Hexahydro-2,5-di-methylcyclopent[4,5]imidazo[2,1-b]purin-4(3H)-one] | 3000 nM | 300 nM | 40 mmHg | – | –
Cc1nc2c([nH]1)C(=O)N(C)C1=NC34CCCC3CCC4N12.Cl (single isomer, unassigned; (+)) [Example 41a, (+)-6a,7,8,9,9a,10,11,11a-Octahydro-2,5-dimethyl-3H-pentaleno[6a',1':4,5]imidazo[2,1-b]purin-4(5H)-one, hydrochloride] | 200 nM | 100 nM | 67 mmHg | 45 mmHg | 52 mmHg
